Where a SMILES comes first, the peptide text is derived from it. [ ]: non-standard residue; d: D form. Sar = CNCC(=O)O

For series [1], the target named is T1, human OAT4 (Homo sapiens, UniProt Q9NSA0).
T1 sequence (Q9NSA0 1-550): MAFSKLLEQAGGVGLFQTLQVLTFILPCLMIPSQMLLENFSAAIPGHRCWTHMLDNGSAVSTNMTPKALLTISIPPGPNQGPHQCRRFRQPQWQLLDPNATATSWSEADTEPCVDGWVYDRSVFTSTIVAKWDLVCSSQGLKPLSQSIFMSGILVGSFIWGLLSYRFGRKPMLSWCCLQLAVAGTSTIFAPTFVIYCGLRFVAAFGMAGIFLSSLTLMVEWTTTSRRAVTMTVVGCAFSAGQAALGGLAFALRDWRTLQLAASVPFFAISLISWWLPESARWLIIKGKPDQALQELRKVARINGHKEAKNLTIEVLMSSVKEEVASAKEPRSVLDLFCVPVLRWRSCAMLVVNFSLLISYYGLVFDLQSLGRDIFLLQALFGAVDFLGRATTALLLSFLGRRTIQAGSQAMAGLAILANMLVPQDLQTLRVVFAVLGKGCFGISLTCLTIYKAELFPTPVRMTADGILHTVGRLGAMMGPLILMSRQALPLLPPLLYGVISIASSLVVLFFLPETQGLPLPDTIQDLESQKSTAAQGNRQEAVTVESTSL
The series is described as follows: SLC transporter substrate assay, HEK293-OAT4-LV vs control HEK293-Mock-LV cells. The conditions noted are these: 1 min.

For series [2], the target named is T2, human PEPT2 (Homo sapiens, UniProt Q16348).
T2 sequence (Q16348 1-729): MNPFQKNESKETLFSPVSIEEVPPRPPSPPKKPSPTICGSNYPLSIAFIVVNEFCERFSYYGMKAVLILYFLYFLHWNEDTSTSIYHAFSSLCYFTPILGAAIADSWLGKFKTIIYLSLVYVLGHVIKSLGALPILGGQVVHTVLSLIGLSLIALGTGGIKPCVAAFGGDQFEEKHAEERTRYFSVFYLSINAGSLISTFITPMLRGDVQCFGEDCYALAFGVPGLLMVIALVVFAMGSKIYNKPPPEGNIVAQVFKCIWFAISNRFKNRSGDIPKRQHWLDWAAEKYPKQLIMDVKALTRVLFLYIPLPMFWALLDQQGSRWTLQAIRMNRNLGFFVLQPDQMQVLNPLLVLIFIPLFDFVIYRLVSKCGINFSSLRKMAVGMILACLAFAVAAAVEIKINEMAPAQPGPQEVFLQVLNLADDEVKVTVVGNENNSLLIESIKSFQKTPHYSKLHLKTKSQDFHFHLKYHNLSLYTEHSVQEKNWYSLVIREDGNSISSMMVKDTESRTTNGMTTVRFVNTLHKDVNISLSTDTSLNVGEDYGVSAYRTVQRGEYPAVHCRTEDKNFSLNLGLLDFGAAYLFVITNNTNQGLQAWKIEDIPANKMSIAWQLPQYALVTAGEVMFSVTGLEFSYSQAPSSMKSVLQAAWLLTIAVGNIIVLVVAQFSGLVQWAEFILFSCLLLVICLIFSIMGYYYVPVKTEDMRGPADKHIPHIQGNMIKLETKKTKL
The series is described as follows: SLC transporter substrate assay, CHO-K1-PEPT2 vs control CHO-K1 cells. The settings on record: 8 min. How it is done:
The described cells were plated onto standard 24-well tissue culture plates at densities of 5 × 10^5 cells/well. […] Before starting the experiment, the cells were prepared by removing the medium and washing the cells twice with 300 µL of assay buffer. […] The cells were lysed by adding 300 µL of 0.1N NaOH, they were incubated for 10 min at 37 °C and 100 µL samples were taken from all the wells.
The amount of protein in each well was quantified using the BCA kit for protein determination (Sigma-Aldrich, St Louis, MO, USA). Positive controls were performed using a separate 96-well plate format according to Table S8 in SI4.
(§1) SI4. Results of transporter substrate assays (SLC)
Table S8: Parameters of positive controls, control cell lines and plating for SLC transporters assays.
KH: Krebs-Henseleit buffer, HBSS: Hank's balanced salt solution, MES: 2 -(N-morpholino) ethanesulfonic acid, cGMP:
Guanosine cyclic phosphate, E3S: Estrone -3-sulfate, Gly-Sar: Glycylsarcosine, MPP+: 1-methyl-4-phenylpyridinium.
Calculation of fold accumulation values for SLC transporter substrate assays The fold accumulation value was defined as the ratio of uptake of the test substance (TS) or probe substrate into transfected and control cells. If the fold accumulation is > 2 and can be inhibited by a known inhibitor of the transporter, the test substance can be considered as a substrate of the respective transporter.
(§2) Fold accumulation = UPTTRP
• UPTTRP: accumulated amount of test substance (TS) or probe substrate in transfected cells normalized by protein content […]
• UPTCTRL: accumulated amount of test substance (TS) or probe substrate in control cells normalized by protein content […]
Positive control conducted at pH 5.0.
Gly-Sar: Glycylsarcosine.

Series [3] addresses T3, human OCT3 (Homo sapiens, UniProt O75751).
T3 construct: host or cells: HEK293-OCT3-LV
T3 sequence (O75751 1-556): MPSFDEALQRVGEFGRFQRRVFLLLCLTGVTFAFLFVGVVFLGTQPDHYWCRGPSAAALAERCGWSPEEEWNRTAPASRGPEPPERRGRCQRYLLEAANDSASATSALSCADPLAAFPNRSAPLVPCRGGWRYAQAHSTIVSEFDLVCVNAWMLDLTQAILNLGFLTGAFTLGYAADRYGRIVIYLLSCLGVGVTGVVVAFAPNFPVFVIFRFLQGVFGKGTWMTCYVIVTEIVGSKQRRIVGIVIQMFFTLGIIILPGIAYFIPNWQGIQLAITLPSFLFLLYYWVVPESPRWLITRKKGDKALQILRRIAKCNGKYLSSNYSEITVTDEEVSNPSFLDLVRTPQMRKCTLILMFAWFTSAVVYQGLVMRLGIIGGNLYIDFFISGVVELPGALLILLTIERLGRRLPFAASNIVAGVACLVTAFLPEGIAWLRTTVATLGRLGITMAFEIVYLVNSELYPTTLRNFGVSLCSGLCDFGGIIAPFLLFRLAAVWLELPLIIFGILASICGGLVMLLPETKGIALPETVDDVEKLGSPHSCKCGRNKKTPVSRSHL
Nature of the series: SLC transporter substrate assay, HEK293-OCT3-LV vs control HEK293-Mock-LV cells. It is filed as in vitro ADME. The settings on record: 3 min. How it is done:
as §1
(§3) Human Incubation Positive control substrate/ Control Special Incubation Assay […]
(Cell line) at 37°C [min] [h] […]
into transfected and control cells.
as §2
(§4) PSMA-617 in SLC transporters.
(§5) NA: not analyzed. Test substances were considered as substrates in case of fold accumulation values > 2 combined with inhibition values higher than 50%.
4.7 Organic cation transporter OCT3
(HEK293-OCT3-LV) and control cells (HEK293-Mock-LV) applying 2- and 20-minute incubation periods, measured in SLC transporter substrate assay. […] Concentrations are nominal.
Table S16: ([α,β-3H]Nal)Lu-PSMA-617-accumulation in OCT3 transporter-expressing (HEK293-OCT3-LV) and control […]
(§6) Conditions Accumulation (pmol/mg protein)
Compound Nominal In OCT3 Fold concentration Minutes transporter In control Active accumulation
(§7) [µM] expressing cells transport
(§8) Positive control (accumulation in cpm)
MPP +: 1-methyl -4-phenylpyridinium.

The target in series [4] is T4, human OAT1 (Homo sapiens, UniProt Q4U2R8).
T4 sequence (Q4U2R8 1-563): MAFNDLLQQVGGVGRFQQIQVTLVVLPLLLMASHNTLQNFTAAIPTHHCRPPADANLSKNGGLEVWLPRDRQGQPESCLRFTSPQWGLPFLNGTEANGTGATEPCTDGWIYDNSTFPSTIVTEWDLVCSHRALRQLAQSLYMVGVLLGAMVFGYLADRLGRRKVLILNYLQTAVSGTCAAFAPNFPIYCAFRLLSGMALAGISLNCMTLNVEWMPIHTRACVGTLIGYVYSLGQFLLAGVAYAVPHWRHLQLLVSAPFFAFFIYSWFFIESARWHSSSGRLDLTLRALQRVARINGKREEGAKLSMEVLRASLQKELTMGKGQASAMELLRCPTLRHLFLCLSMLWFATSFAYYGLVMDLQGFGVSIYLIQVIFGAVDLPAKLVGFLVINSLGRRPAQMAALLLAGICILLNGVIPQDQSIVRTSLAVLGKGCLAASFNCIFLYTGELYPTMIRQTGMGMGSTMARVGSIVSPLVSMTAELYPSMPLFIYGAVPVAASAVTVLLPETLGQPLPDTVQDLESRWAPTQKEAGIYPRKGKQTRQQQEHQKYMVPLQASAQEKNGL
The series is described as follows: SLC transporter substrate assay, HEK293-OAT1-LV vs control HEK293-Mock-B-LV cells. The conditions noted are these: 2 min.

Series [5] addresses T5, human OAT2v1 (Homo sapiens, UniProt Q9Y694).
T5 construct: host or cells: HEK293-OAT2v1-LV
T5 sequence (Q9Y694 1-546 isoform Q9Y694-2): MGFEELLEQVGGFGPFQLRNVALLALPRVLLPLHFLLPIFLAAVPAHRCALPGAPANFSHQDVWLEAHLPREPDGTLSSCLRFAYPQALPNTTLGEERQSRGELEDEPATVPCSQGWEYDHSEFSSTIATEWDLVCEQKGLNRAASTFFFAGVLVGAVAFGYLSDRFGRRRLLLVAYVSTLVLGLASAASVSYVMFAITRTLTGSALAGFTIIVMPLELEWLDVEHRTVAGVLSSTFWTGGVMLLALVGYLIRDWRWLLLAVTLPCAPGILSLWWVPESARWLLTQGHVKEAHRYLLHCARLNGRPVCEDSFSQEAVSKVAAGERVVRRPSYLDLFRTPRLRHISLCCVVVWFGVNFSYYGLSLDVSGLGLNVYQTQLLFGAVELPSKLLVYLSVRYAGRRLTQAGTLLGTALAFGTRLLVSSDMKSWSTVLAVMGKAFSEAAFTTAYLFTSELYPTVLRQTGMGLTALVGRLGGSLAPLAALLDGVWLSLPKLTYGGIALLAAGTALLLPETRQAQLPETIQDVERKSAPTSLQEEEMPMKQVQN
Nature of the series: SLC transporter substrate assay, HEK293-OAT2v1-LV vs control HEK293-Mock-LV cells. The settings on record: 1 min. It is filed as in vitro ADME. On the procedure:
as §1, §3
(Cell line) at 37°C [min] [h]
OAT2v1 cGMP (1.5) / Mock-B- Poly-D-lysine
as §2, §4, §5
4.4 Organic anion transporter OAT2v1 […]
expressed as mean (n=3) ± SD. Concentrations are nominal.
Table S13: ([α,β-3H]Nal)Lu-PSMA-617-accumulation in OAT2v1 transporter expressing (HEK293-OAT2v1-LV) and […]
as §6
Compound Nominal In OAT2v1 Fold concentration Minutes transporter In control Active accumulation
as §7, §8

Where [6] appears, read: positive control at pH 5.0: Gly-Sar 4 µM + Cefadroxil 200 µM.
Setting [7] is: positive control at pH 5.0: Gly-Sar 4 µM.
Where [8] appears, read: positive control: MPP+ 0.02 µM + Quinidine 1000 µM.
Where [9] appears, read: positive control: Tenofovir 5 µM + Probenecid 300 µM.
The mark [10] stands for this setting: positive control: Tenofovir 5 µM.
The mark [11] stands for this setting: positive control: cGMP 1.82 µM + Indomethacin 300 µM.

Regarding `C[C@]12CC[C@@H]3c4ccc(OS(=O)(=O)[O-])cc4CC[C@H]3[C@@H]1CCC2=O.[Na+]` [E3S, estrone-3-sulfate sodium salt, reference compound], the Fold accumulation was 5.12 in series [1] (positive control: E3S 1 µM + Benzbromarone 300 µM) and 24.16 in series [1] (positive control: E3S 1 µM).

Turning to `CN(CC(=O)O)C(=O)CN` [Gly-Sar, glycylsarcosine, reference compound] (H-Gly-[Sar]-OH), in series [2] (setting [6]), the “Accumulation in PEPT2 transporter expressing cells” value turned out to be 263.67 cpm; the “Accumulation in control cells” value was found to be 34.33 cpm; the “Accumulation, active transport” value is recorded as 229.33 cpm; the Fold accumulation is on record as 7.68. In series [2] (setting [7]), the “Accumulation in PEPT2 transporter expressing cells” value was 1570.00 cpm; the “Accumulation in control cells” value was found to be 31.33 cpm; the “Accumulation, active transport” value is listed as 1538.67 cpm; the Fold accumulation came to 50.11.

With `C[n+]1ccc(-c2ccccc2)cc1` [MPP+, 1-Methyl-4-phenylpyridin-1-ium, reference compound], in series [3] (setting [8]), the “Accumulation in OCT3 transporter expressing cells” value is 1429.667 cpm; the “Accumulation in control cells” value is 233.000 cpm; the “Accumulation, active transport” value is 1196.667 cpm; the Fold accumulation was found to be 6.14. In series [3] (positive control: MPP+ 0.02 µM), the “Accumulation in OCT3 transporter expressing cells” value turned out to be 10728.333 cpm; the “Accumulation in control cells” value stood at 629.333 cpm; the “Accumulation, active transport” value is listed as 10099.000 cpm; the Fold accumulation amounted to 17.05.

Consider `C[C@H](Cn1cnc2c(N)ncnc21)OCP(=O)(O)O` [Tenofovir, tenofovir, reference compound], for which, in series [4] (setting [9]), the “Accumulation in OAT1 transporter expressing cells” value stood at 372.67 cpm; the “Accumulation in control cells” value was 77.00 cpm; the “Accumulation, active transport” value is 295.67 cpm; the Fold accumulation is 4.84. Further, in series [4] (setting [10]), the “Accumulation in OAT1 transporter expressing cells” value turned out to be 7739.67 cpm; the “Accumulation in control cells” value is recorded as 85.00 cpm; the “Accumulation, active transport” value is 7654.67 cpm; the Fold accumulation is 91.05.

Take `Nc1nc2c(ncn2[C@@H]2O[C@@H]3COP(=O)(O)O[C@H]3[C@H]2O)c(=O)[nH]1` [cGMP, guanosine 3′,5′-cyclic monophosphate, reference compound]: in series [5] (setting [11]), the “Accumulation in OAT2v1 transporter expressing cells” value is on record as 551.67 cpm; the “Accumulation in control cells” value was 67.67 cpm; the “Accumulation, active transport” value was 484.00 cpm; the Fold accumulation was found to be 8.15. Besides, in series [5] (positive control: cGMP 1.82 µM), the “Accumulation in OAT2v1 transporter expressing cells” value turned out to be 9207.33 cpm; the “Accumulation in control cells” value is given as 75.00 cpm; the “Accumulation, active transport” value was found to be 9132.33 cpm; the Fold accumulation is on record as 122.76.

The record behind these values is publication PMC11053447, “Human ABC and SLC Transporters: The Culprit Responsible for Unspecific PSMA-617 Uptake?” (Pharmaceuticals, 2024).
